Results from PubChem BioAssay AID2060615 (Molecular Pharmacology Branch, DTP, NCI, 2025).

System: 496974-208-R-J2-PDC complex spheroids, growth % test/control
Experiment: Anticancer human tumor 496974-208-R-J2-PDC patient-derived pancreatic carcinoma cell line growth inhibition [CLK]
Details: for IC50: curve of first compound; for viability, T/C: stronger effect = lower value
Summary of the method: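 Patient-derived tumor cells grown as complex spheroids with HUVEC endothelial cells and mesenchymal stem cells, treated with drug combinations. Concentrations descend in half-log steps from near clinical Cmax, or from 10 microM if Cmax unknown.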

[1] = second compound 0.0316 µM, first compound 0.0316 µM
[2] = second compound 0.0316 µM, first compound 0.1 µM
[3] = second compound 0.0316 µM, first compound 0.316 µM
[4] = second compound 0.0316 µM, first compound 1 µM
[5] = second compound 0.0316 µM, first compound 3.16 µM
[6] = second compound 0.0316 µM, first compound 10 µM
[7] = second compound 0.1 µM, first compound 0.0316 µM
[8] = second compound 0.1 µM, first compound 0.1 µM
[9] = second compound 0.1 µM, first compound 0.316 µM
[10] = second compound 0.1 µM, first compound 1 µM
[11] = second compound 0.1 µM, first compound 3.16 µM
[12] = second compound 0.1 µM, first compound 10 µM
[13] = second compound 0.316 µM, first compound 0.0316 µM
[14] = second compound 0.316 µM, first compound 0.1 µM
[15] = second compound 0.316 µM, first compound 0.316 µM
[16] = second compound 0.316 µM, first compound 1 µM
[17] = second compound 0.316 µM, first compound 3.16 µM
[18] = second compound 0.316 µM, first compound 10 µM
[19] = second compound 1 µM, first compound 0.0316 µM
[20] = second compound 1 µM, first compound 0.1 µM
[21] = second compound 1 µM, first compound 0.316 µM
[22] = second compound 1 µM, first compound 1 µM
[23] = second compound 1 µM, first compound 3.16 µM
[24] = second compound 1 µM, first compound 10 µM
[25] = second compound 3.16 µM, first compound 0.0316 µM
[26] = second compound 3.16 µM, first compound 0.1 µM
[27] = second compound 3.16 µM, first compound 0.316 µM
[28] = second compound 3.16 µM, first compound 1 µM
[29] = second compound 3.16 µM, first compound 3.16 µM
[30] = second compound 3.16 µM, first compound 10 µM
[31] = second compound 10 µM, first compound 0.0316 µM
[32] = second compound 10 µM, first compound 0.1 µM
[33] = second compound 10 µM, first compound 0.316 µM
[34] = second compound 10 µM, first compound 1 µM
[35] = second compound 10 µM, first compound 3.16 µM
[36] = second compound 10 µM, first compound 10 µM
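Also: spheroids exposed to the drugs for 7 days before readout.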
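For viability, T/C in this document: 100% = DMSO vehicle control wells.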

For COc1ccc([C@@H](O)c2cc(-c3ncnc4cc(N5CCOCC5)ccc34)c(F)cc2Cl)nn1 + CN1CCN(c2cc(C(=O)Nc3cc4cc(-c5cnn(C)c5)ccc4cn3)ccn2)CC1, the IC50 (second compound 0.0316 µM) was 5970 nM, the IC50 (second compound 0.1 µM) was 3470 nM and the IC50 (second compound 0.316 µM) was < 31.6 nM. For the same molecule, the IC50 (second compound 1 µM) was < 31.6 nM, the IC50 (second compound 3.16 µM) was < 31.6 nM and the IC50 (second compound 10 µM) was < 31.6 nM. It also gave a viability, T/C [1] of 110%, a viability, T/C [2] of 101% and a viability, T/C [3] of 92.9%. For the same molecule, the viability, T/C [4] was 88.7%, the viability, T/C [5] was 63.6% and the viability, T/C [6] was 37.7%. It also gave a viability, T/C [7] of 84.8%, a viability, T/C [8] of 81.4% and a viability, T/C [9] of 84.2%. The viability, T/C [10] was 69.9%, the viability, T/C [11] was 52.2% and the viability, T/C [12] was 31.5%. It also gave a viability, T/C [13] of 4.25%, a viability, T/C [14] of 4.3% and a viability, T/C [15] of 5.59%. The viability, T/C [16] was 3.72%, the viability, T/C [17] was 2.53% and the viability, T/C [18] was 1.66%. It also gave a viability, T/C [19] of 0.41%, a viability, T/C [20] of 0.45% and a viability, T/C [21] of 2.89%. The viability, T/C [22] was 0.48%, the viability, T/C [23] was 1.17% and the viability, T/C [24] was 1.46%. The viability, T/C [25] was 0.36%, the viability, T/C [26] was 0.61% and the viability, T/C [27] was 0.67%. For the same molecule, the viability, T/C [28] was 0.54%, the viability, T/C [29] was 2.79% and the viability, T/C [30] was 2.82%. For the same molecule, the viability, T/C [31] was 0.19%, the viability, T/C [32] was 0.34% and the viability, T/C [33] was 1.74%. For the same molecule, the viability, T/C [34] was 0.3%, the viability, T/C [35] was 2% and the viability, T/C [36] was 2.87%.

With COc1cccc2c1C(=O)c1c(O)c3c(c(O)c1C2=O)CC(O)(C(=O)CO)CC3OC1CC(N)C(O)C(C)O1 (stereo unspecified) + CN1CCN(c2cc(C(=O)Nc3cc4cc(-c5cnn(C)c5)ccc4cn3)ccn2)CC1 the IC50 (second compound 0.0316 µM) was 120 nM, the IC50 (second compound 0.1 µM) was 78.5 nM and the IC50 (second compound 0.316 µM) was < 31.6 nM. The IC50 (second compound 1 µM) was < 31.6 nM, the IC50 (second compound 3.16 µM) was < 31.6 nM and the IC50 (second compound 10 µM) was < 31.6 nM. For the same molecule, the viability, T/C [1] was 68.7%, the viability, T/C [2] was 51.4% and the viability, T/C [3] was 30.8%. It also gave a viability, T/C [4] of 3.22%, a viability, T/C [5] of 0.57% and a viability, T/C [6] of 0.47%. The viability, T/C [7] was 59.9%, the viability, T/C [8] was 46.6% and the viability, T/C [9] was 20.3%. It also gave a viability, T/C [10] of 2.07%, a viability, T/C [11] of 0.59% and a viability, T/C [12] of 4.88%. It also gave a viability, T/C [13] of 7.3%, a viability, T/C [14] of 3.63% and a viability, T/C [15] of 1.93%. For the same molecule, the viability, T/C [16] was 0.81%, the viability, T/C [17] was 0.45% and the viability, T/C [18] was 3.13%. The viability, T/C [19] was 0.57%, the viability, T/C [20] was 1.13% and the viability, T/C [21] was 0.75%. It also gave a viability, T/C [22] of 0.66%, a viability, T/C [23] of 0.36% and a viability, T/C [24] of 4.38%. It also gave a viability, T/C [25] of 0.52%, a viability, T/C [26] of 0.84% and a viability, T/C [27] of 0.57%. The viability, T/C [28] was 0.48%, the viability, T/C [29] was 1.77% and the viability, T/C [30] was 4.51%. For the same molecule, the viability, T/C [31] was 0.22%, the viability, T/C [32] was 1.44% and the viability, T/C [33] was 0.2%. For the same molecule, the viability, T/C [34] was 0.2%, the viability, T/C [35] was 0.21% and the viability, T/C [36] was 5.39%.

CCCS(=O)(=O)Nc1ccc(F)c(C(=O)c2c[nH]c3ncc(-c4ccc(Cl)cc4)cc23)c1F + CNC(=O)c1ccc(Nc2nc(OC3CCCC3)c3c(-c4ccc5nc(C)oc5c4)c[nH]c3n2)c(OC)c1 was tested, and the IC50 (second compound 0.0316 µM) was 6390 nM, the IC50 (second compound 0.1 µM) was 6360 nM and the IC50 (second compound 0.316 µM) was > 10000 nM. The IC50 (second compound 1 µM) was 2590 nM, the IC50 (second compound 3.16 µM) was 68.1 nM and the IC50 (second compound 10 µM) was < 31.6 nM. For the same molecule, the viability, T/C [1] was 94.7%, the viability, T/C [2] was 73.7% and the viability, T/C [3] was 115%. The viability, T/C [4] was 100%, the viability, T/C [5] was 91% and the viability, T/C [6] was 23.6%. It also gave a viability, T/C [7] of 71.5%, a viability, T/C [8] of 47.6% and a viability, T/C [9] of 78.6%. For the same molecule, the viability, T/C [10] was 86%, the viability, T/C [11] was 78.2% and the viability, T/C [12] was 35.6%. The viability, T/C [13] was 70.7%, the viability, T/C [14] was 45.4% and the viability, T/C [15] was 76.3%. For the same molecule, the viability, T/C [16] was 71.2%, the viability, T/C [17] was 78.2% and the viability, T/C [18] was 29.6%. For the same molecule, the viability, T/C [19] was 51.2%, the viability, T/C [20] was 44.1% and the viability, T/C [21] was 64.5%. For the same molecule, the viability, T/C [22] was 69.5%, the viability, T/C [23] was 66.2% and the viability, T/C [24] was 22.4%. For the same molecule, the viability, T/C [25] was 52%, the viability, T/C [26] was 26% and the viability, T/C [27] was 61.9%. It also gave a viability, T/C [28] of 63.3%, a viability, T/C [29] of 53.1% and a viability, T/C [30] of 19.8%. It also gave a viability, T/C [31] of 50.7%, a viability, T/C [32] of 30.5% and a viability, T/C [33] of 58.6%. For the same molecule, the viability, T/C [34] was 61.7%, the viability, T/C [35] was 64% and the viability, T/C [36] was 27.2%.
